The structures appear in SMILES notation.

This test concerns the target WDR5 (Homo sapiens, UniProt P61964). Kind of test: Screening of putative WDR5 degraders by Western blot in MV4;11 and/or MIAPACA2 cells. As to conditions: summary of screening, FIGS. 6-10. The class given is cell-based. Set-up: After WDR5 degrader treatment, cells were collected and lysed; endogenous in cells; host or cells: MV4;11 and/or MIAPACA2. The method in brief:
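MV4;11 (1×10^6/well) or MIAPACA2 (1×10^5/well) cells treated 18 h with compound at paired doses between 0.1 and 10 μM, DMSO as control. Total lysates immunoblotted for WDR5 with vinculin, tubulin or GAPDH loading controls; fluorescent secondary detection.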
On the technique in general: A western blot detects proteins with antibodies after separation by electrophoresis.
`C[C@@H]1CN(c2ccc(-c3cc(CN4CCN(CCNC(=O)CCOCCOCCOCCOCCOCCNc5cccc6c5C(=O)N(C5CCC(=O)NC5=O)C6=O)CC4)ccc3F)cc2NC(=O)c2c[nH]c(=O)cc2C(F)(F)F)C[C@H](C)N1C` (stereo partly drawn) [XF078-29, N-(5′-((4-(1-((2-(2,6-dioxopiperidin-3-yl)-1,3-dioxoisoindolin-4-yl)amino)-18-oxo-3,6,9,12,15-pentaoxa-19-azahenicosan-21-yl)piperazin-1-yl)methyl)-2′-fluoro-4-((3S,5R)-3,4,5-trimethylpiperazin-1-yl)-[1,1′-biphenyl]-3-yl)-6-oxo-4-(trifluoromethyl)-1,6-dihydropyridine-3-carboxamide]: the “effective degradation of WDR5 in MV4;11 and/or MIAPACA2 cells” value (“effective degradation of WDR5” below) is recorded as “able to effectively degrade WDR5”.

In the case of `Cc1ncsc1-c1ccc(CNC(=O)[C@@H]2C[C@@H](O)CN2C(=O)[C@@H](NC(=O)CCCCCCCC(=O)N2CCN(c3ncc(-c4cc(NC(=O)c5ccc(F)cc5C(F)(F)F)c(N5C[C@@H](C)N(C)[C@@H](C)C5)cc4F)cn3)CC2)C(C)(C)C)cc1` [XF078-113, (2S,4R)-1-((S)-2-(9-(4-(5-(2-fluoro-5-(4-fluoro-2-(trifluoromethyl)benzamido)-4-((3S,5R)-3,4,5-trimethylpiperazin-1-yl)phenyl)pyrimidin-2-yl)piperazin-1-yl)-9-oxononanamido)-3,3-dimethylbutanoyl)-4-hydroxy-N-(4-(4-methylthiazol-5-yl)benzyl)pyrrolidine-2-carboxamide], the “effective degradation of WDR5” value is listed as “able to effectively degrade WDR5”.

With `C[C@@H]1CN(c2ccc(-c3cc(CN4CCN(CCNC(=O)CCOCCOCCNc5cccc6c5C(=O)N(C5CCC(=O)NC5=O)C6=O)CC4)ccc3F)cc2NC(=O)c2c[nH]c(=O)cc2C(F)(F)F)C[C@H](C)N1C` (stereo partly drawn) [XF078-26, N-(5′-((4-(2-(3-(2-(2-((2-(2,6-dioxopiperidin-3-yl)-1,3-dioxoisoindolin-4-yl)amino)ethoxy)ethoxy)propanamido)ethyl)piperazin-1-yl)methyl)-2′-fluoro-4-((3S,5R)-3,4,5-trimethylpiperazin-1-yl)-[1,1′-biphenyl]-3-yl)-6-oxo-4-(trifluoromethyl)-1,6-dihydropyridine-3-carboxamide], the “effective degradation of WDR5” value is recorded as “able to effectively degrade WDR5”.

For `C[C@@H]1CN(c2ccc(-c3cc(CN4CCN(CCNC(=O)CCCNc5cccc6c5C(=O)N(C5CCC(=O)NC5=O)C6=O)CC4)ccc3F)cc2NC(=O)c2c[nH]c(=O)cc2C(F)(F)F)C[C@H](C)N1C` (stereo partly drawn) [XF078-20, N-(5′-((4-(2-(4-((2-(2,6-dioxopiperidin-3-yl)-1,3-dioxoisoindolin-4-yl)amino)butanamido)ethyl)piperazin-1-yl)methyl)-2′-fluoro-4-((3S,5R)-3,4,5-trimethylpiperazin-1-yl)-[1,1′-biphenyl]-3-yl)-6-oxo-4-(trifluoromethyl)-1,6-dihydropyridine-3-carboxamide], the “effective degradation of WDR5” value is “able to effectively degrade WDR5”.

Take `Cc1ncsc1-c1ccc(CNC(=O)[C@@H]2C[C@@H](O)CN2C(=O)[C@@H](NC(=O)CCCCCCCCC(=O)N2CCN(c3ncc(-c4cc(NC(=O)c5ccc(F)cc5C(F)(F)F)c(N5C[C@@H](C)N(C)[C@@H](C)C5)cc4F)cn3)CC2)C(C)(C)C)cc1` [XF078-114, (2S,4R)-1-((S)-2-(10-(4-(5-(2-fluoro-5-(4-fluoro-2-(trifluoromethyl)benzamido)-4-((3S,5R)-3,4,5-trimethylpiperazin-1-yl)phenyl)pyrimidin-2-yl)piperazin-1-yl)-10-oxodecanamido)-3,3-dimethylbutanoyl)-4-hydroxy-N-(4-(4-methylthiazol-5-yl)benzyl)pyrrolidine-2-carboxamide]: the “effective degradation of WDR5” value was “able to effectively degrade WDR5”.

Regarding `C[C@@H]1CN(c2cc(F)c(C3=CCN(c4ncc(CN5CCN(C(=O)CCNc6cccc7c6C(=O)N(C6CCC(=O)NC6=O)C7=O)CC5)cn4)CC3)cc2NC(=O)c2c[nH]c(=O)cc2C(F)(F)F)C[C@H](C)N1C` (stereo partly drawn) [XF078-150, N-(5-(1-(5-((4-(3-((2-(2,6-dioxopiperidin-3-yl)-1,3-dioxoisoindolin-4-yl)amino)propanoyl)piperazin-1-yl)methyl)pyrimidin-2-yl)-1,2,3,6-tetrahydropyridin-4-yl)-4-fluoro-2-((3S,5R)-3,4,5-trimethylpiperazin-1-yl)phenyl)-6-oxo-4-(trifluoromethyl)-1,6-dihydropyridine-3-carboxamide], the “effective degradation of WDR5” value is on record as “able to effectively degrade WDR5”.

For `Cc1ncsc1-c1ccc(CNC(=O)[C@@H]2C[C@@H](O)CN2C(=O)[C@@H](NC(=O)CCCCCCCCC(=O)N2CC=C(c3cc(NC(=O)c4c[nH]c(=O)cc4C(F)(F)F)c(N4C[C@@H](C)N(C)[C@@H](C)C4)cc3F)CC2)C(C)(C)C)cc1` [XF078-45, N-(4-fluoro-5-(1-(10-(((S)-1-((2S,4R)-4-hydroxy-2-((4-(4-methylthiazol-5-yl)benzyl)carbamoyl)pyrrolidin-1-yl)-3,3-dimethyl-1-oxobutan-2-yl)amino)-10-oxodecanoyl)-1,2,3,6-tetrahydropyridin-4-yl)-2-((3S,5R)-3,4,5-trimethylpiperazin-1-yl)phenyl)-6-oxo-4-(trifluoromethyl)-1,6-dihydropyridine-3-carboxamide], the “effective degradation of WDR5” value is on record as “able to effectively degrade WDR5”.

For the compound `Cc1ncsc1-c1ccc(CNC(=O)[C@@H]2C[C@@H](O)CN2C(=O)[C@@H](NC(=O)CCCCCCCCCC(=O)N2CCN(Cc3cnc(N4CC=C(c5cc(NC(=O)c6c[nH]c(=O)cc6C(F)(F)F)c(N6C[C@@H](C)N(C)[C@@H](C)C6)cc5F)CC4)nc3)CC2)C(C)(C)C)cc1` [XF078-148, N-(4-fluoro-5-(1-(5-((4-(11-(((S)-1-((2S,4R)-4-hydroxy-2-((4-(4-methylthiazol-5-yl)benzyl)carbamoyl)pyrrolidin-1-yl)-3,3-dimethyl-1-oxobutan-2-yl)amino)-11-oxoundecanoyl)piperazin-1-yl)methyl)pyrimidin-2-yl)-1,2,3,6-tetrahydropyridin-4-yl)-2-((3S,5R)-3,4,5-trimethylpiperazin-1-yl)phenyl)-6-oxo-4-(trifluoromethyl)-1,6-dihydropyridine-3-carboxamide], the “effective degradation of WDR5” value was “able to effectively degrade WDR5”.

`C[C@@H]1CN(c2ccc(-c3cc(CN4CCN(CCNC(=O)CCCCCCCNc5cccc6c5C(=O)N(C5CCC(=O)NC5=O)C6=O)CC4)ccc3F)cc2NC(=O)c2c[nH]c(=O)cc2C(F)(F)F)C[C@H](C)N1C` (stereo partly drawn) [XF078-24, N-(5′-((4-(2-(8-((2-(2,6-dioxopiperidin-3-yl)-1,3-dioxoisoindolin-4-yl)amino)octanamido)ethyl)piperazin-1-yl)methyl)-2′-fluoro-4-((3S,5R)-3,4,5-trimethylpiperazin-1-yl)-[1,1′-biphenyl]-3-yl)-6-oxo-4-(trifluoromethyl)-1,6-dihydropyridine-3-carboxamide]: the “effective degradation of WDR5” value is on record as “able to effectively degrade WDR5”.

On to `Cc1ncsc1-c1ccc(CNC(=O)[C@@H]2C[C@@H](O)CN2C(=O)[C@@H](NC(=O)CCOCCOCCC(=O)N2CCN(c3ncc(-c4cc(NC(=O)c5ccc(F)cc5C(F)(F)F)c(N5C[C@@H](C)N(C)[C@@H](C)C5)cc4F)cn3)CC2)C(C)(C)C)cc1` [XF078-102, (2S,4R)-1-((S)-2-(3-(2-(3-(4-(5-(2-fluoro-5-(4-fluoro-2-(trifluoromethyl)benzamido)-4-((3S,5R)-3,4,5-trimethylpiperazin-1-yl)phenyl)pyrimidin-2-yl)piperazin-1-yl)-3-oxopropoxy)ethoxy)propanamido)-3,3-dimethylbutanoyl)-4-hydroxy-N-(4-(4-methylthiazol-5-yl)benzyl)pyrrolidine-2-carboxamide], for which the “effective degradation of WDR5” value is recorded as “able to effectively degrade WDR5”.

As to `Cc1ncsc1-c1ccc(CNC(=O)[C@@H]2C[C@@H](O)CN2C(=O)[C@@H](NC(=O)CCCCCCCCCCCC(=O)NCCN2CCN(Cc3cccc(-c4ccc(N5CCN(C)CC5)c(NC(=O)c5c[nH]c(=O)cc5C(F)(F)F)c4)c3)CC2)C(C)(C)C)cc1` [XF050-161, N^1-((S)-1-((2S,4R)-4-hydroxy-2-((4-(4-methylthiazol-5-yl)benzyl)carbamoyl)pyrrolidin-1-yl)-3,3-dimethyl-1-oxobutan-2-yl)-N^13-(2-(4-((4′-(4-methylpiperazin-1-yl)-3′-(6-oxo-4-(trifluoromethyl)-1,6-dihydropyridine-3-carboxamido)-[1,1′-biphenyl]-3-yl)methyl)piperazin-1-yl)ethyl)tridecanediamide], the “effective degradation of WDR5” value is “able to effectively degrade WDR5”.

In the case of `Cc1ncsc1-c1ccc(CNC(=O)[C@@H]2C[C@@H](O)CN2C(=O)[C@@H](NC(=O)CCCCCCCCC(=O)N2CCN(Cc3cnc(N4CC=C(c5cc(NC(=O)c6c[nH]c(=O)cc6C(F)(F)F)c(N6C[C@@H](C)N(C)[C@@H](C)C6)cc5F)CC4)nc3)CC2)C(C)(C)C)cc1` [XF078-147, N-(4-fluoro-5-(1-(5-((4-(10-(((S)-1-((2S,4R)-4-hydroxy-2-((4-(4-methylthiazol-5-yl)benzyl)carbamoyl)pyrrolidin-1-yl)-3,3-dimethyl-1-oxobutan-2-yl)amino)-10-oxodecanoyl)piperazin-1-yl)methyl)pyrimidin-2-yl)-1,2,3,6-tetrahydropyridin-4-yl)-2-((3S,5R)-3,4,5-trimethylpiperazin-1-yl)phenyl)-6-oxo-4-(trifluoromethyl)-1,6-dihydropyridine-3-carboxamide], the “effective degradation of WDR5” value is “able to effectively degrade WDR5”.
